Test results: patent US12496287B2, “Compositions and methods for treating macrophage activation syndrome” (THE CHILDREN'S HOSPITAL OF PHILADELPHIA, priority 2019, dated 2025)
Counter-ions that a name gives are not always drawn.

Key:
[1] = low dose CO (100-125 ppm); patients with idiopathic pulmonary fibrosis or COPD; cited from earlier work
[2] = target: T1, HO-1 (Mus musculus, UniProt P14901); assay: Cytokines in supernatants of CpG-stimulated BMDMs treated with ZnPP and/or CORM2 (ELISA); format: cell-based
T1 construct: endogenous in cells; host or cells: mouse bone marrow derived macrophages (BMDM)
T1 sequence (P14901 1-289): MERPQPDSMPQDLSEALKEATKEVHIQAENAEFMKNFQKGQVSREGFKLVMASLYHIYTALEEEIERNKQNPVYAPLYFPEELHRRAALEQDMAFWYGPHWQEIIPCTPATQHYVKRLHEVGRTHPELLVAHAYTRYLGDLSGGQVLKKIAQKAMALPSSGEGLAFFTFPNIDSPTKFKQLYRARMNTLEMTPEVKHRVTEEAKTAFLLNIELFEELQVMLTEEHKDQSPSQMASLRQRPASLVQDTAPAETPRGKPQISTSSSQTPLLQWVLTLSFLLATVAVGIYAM
Protocol: Bone marrow (BM) was extracted from the hind limbs of mice and filtered over a 70-μm strainer to obtain a single cell suspension, followed by RBC lysis. Bone marrow derived macrophages (BMDM) were derived by culture in M-CSF-enriched media of L929 cells. RAW264.7 cells were obtained from ATCC (Manassas, VA). Class B CpG1826 oligonucleotide was synthesized by Integrated DNA Technologies (Coralville, IA). Macrophages were treated with CpG (1 μg/ml) for 18 to 20 hours for cytokine analysis in cell supernatant, and for 0 to 2 hours for analysis of protein expression level by Western blot treated as indicated.
(§1) TLR9 activation induced cytokines from cells supernatants and serum were measured by using the ELISA kits from BD OptEIA™ (Cat nos. IL-12: 555256, IL-10: 555252, TNFα: 555268 and IL-6: 555240; Franklin Lakes, NJ).

[3] = system: TLR9-MAS; assay: TLR9-MAS in HMOX1^WT and HMOX1^fl/fl mice, MMF treatment; format: in vivo, mouse
Description: C57BL/6 (WT) and LysM-Cre mice were purchased from The Jackson Laboratory (Bar Harbor, ME). HMOX1^fl/fl mice were crossbred with LysM-Cre mice and genotyped regularly to obtain mice with deletion of the HO-1 gene in myeloid lineage and are designated as: HMOX1^WT (intact HO-1), HMOX1^WT/fl (x LysM-cre, HO-1-haplodeficient,), and HMOX1^fl/fl (x LysM-Cre, complete HO-1-deficiency).
(§2) MAS was induced by repeated activation of TLR9 as described (Behrens, et al. (2011) J. Clin. Invest., 121(6):2264-77; Weaver, et al. (2016) Proc. Natl. Acad. Sci., 113(39):10944-9). Briefly, 8-week old mice were injected with five doses of PBS or 50 μg of CpG1826 intraperitoneally every other day for 9 days, while MMF (cat no: 4511, TOCRIS (Bristol, UK)) in DMSO was injected at 45 mg/Kg body weight based on standard dosing used in other murine studies (Cho, et al. (2015) J. Neuroinflammation 12:239; Yao, et al. (2016) Transl. Stroke Res., 7(6):535-47), every day once in the morning and once in the evening. The control group received DMSO instead of MMF. On day-10 mice were euthanized 24 hours after the last MMF injection, bled terminally to collect blood for complete blood count (CBC) and differential count, and serum for cytokine analysis by ELISA. Spleens and livers were harvested and were formalin fixed followed by paraffin embedment for tissue sectioning and slide preparation for histology and immunohistochemistry (IHC). To obtain single suspension of spleen leukocytes, spleens at 37° C. were disrupted and incubated in the presence of DNAase and collagenase, followed by filtering over 70-μm strainers and RBC lysis. The cells were counted and then adhered for 2 hours on petri dishes to obtain plastic adherent macrophages.
Slides from paraffin-embedded tissue sections were stained with hematoxylin and eosin or were immune-stained for HO-1 (cat no. ADI-SPA-896, Enzo), followed by nuclear stain using prolong gold antifade reagent with Dapi (P36931, Invitrogen (Carlsbad, CA)). Images were acquired on an Eclipse 90i microscope (Nikon (Melville, NY)) using NIS-ELEMENTS software.
as §1

[4] = system: TLR9-MAS murine model; assay: TLR9-MAS murine model (repeated CpG), MMF treatment, C57BL/6 mice; format: in vivo, mouse
Protocol: as §2, with “macrophages. TLR9 activation induced cytokines from cells supernatants and serum were measured by using the ELISA kits from BD OptEIA™ (Cat nos. IL-12: 555256, IL-10: 555252, TNFα: 555268 and IL-6: 555240; Franklin Lakes, NJ).” for “macrophages.”

[5] = system: Nrf2/HO-1; assay: MMF induction of Nrf2 and HO-1 in macrophages of injected mice (Western blot); format: in vivo, mouse
Protocol: as §2, with “On day-10 mice were euthanized 24 hours after the last MMF injection, bled terminally to collect blood for complete blood count (CBC) and differential count, and serum for cytokine analysis by ELISA.” left out
Protein samples (10-12 μg) were resolved by SDS-PAGE on 4-12% Bis-Tris gels (Invitrogen), electrotransferred to nitrocellulose membranes (Cat no. 10484060, Bio-Rad (Hercules, CA)), and assessed for the immunosignal of proteins using the antibodies against HO-1 (cat no. ADI-SPA-896, Enzo (Farmingdale, NY)), Nrf2 (Cat no. 12721, Cell Signaling (Danvers, MA)), Erk (Cat no. 4695, Cell signaling), pErk (Cat no. 4379, Cell Signaling), Cyclophilin B (CyPB, Cat no. PA1-027A, ThermoFisher Scientific), β tubulin (Cat no. 2146, Cell Signaling), β actin (Cat No. 66009-1-Ig, Proteintech (Rosemont, IL)), Calnexin (Cat no. ab22595, abcam (Cambridge, UK) and Histone 3 (Cat no. 4499, Cell Signaling). Fluorescence tagged respective secondary antibodies obtained from Li-COR (Lincoln, Neb.)—Goat-anti-Rabbit-antibody (IRDye® 800CW), or Donkey-anti-mouse-antibody (IRDye® 800CW) or Donkey anti-Mouse IgG (IRDye® 680RD) were then used. […]

[6] = system: HO-1; assay: Splenic HO-1 expression in vivo after repeated CpG treatment (IHC, Western blot); parameters: species or system mouse; details: IFNγ alone, intraperitoneally, IFNγ-/- mice
Protocol: as §2, with “macrophages. […]” for “macrophages.”

[7] = day 10, MMF twice a day, CpG every other day
[8] = spleen plastic adherent macrophages, MMF i.p. every 12 hours, 3 doses, 4 hours after last dose

[C-]#[O+] [CO, carbon monoxide]
tolerability [1]: tolerated

[C-]#[O+].[C-]#[O+].[C-]#[O+].[C-]#[O+].[C-]#[O+].[C-]#[O+].[Cl][Ru][Cl].[Cl][Ru][Cl] [CORM2, carbon monoxide-releasing molecule [CORM] 2]
IL-10 ([2]; CORM2 in BMDM not inhibited by ZnPP or genetically sufficient for HO-1): no additional effect | IL-10 ([2]; CORM2 in HMOX1^fl/fl BMDMs): rescue | IL-10 levels ([2]; CORM2 in ZnPP treated BMDMs, CpG 1 μg/ml): restored IL-10 levels to normal

COC(=O)/C=C/C(=O)O [MMF, monomethyl fumarate]
serum IL-10 elevation ([3]; CpG treated HMOX1^WT mice): 3 fold | serum IL-10 elevation effect ([3]; CpG treated HMOX1^fl/fl mice): completely lost | serum IFNγ ([3]; CpG treated HMOX1 mice): unaffected | serum IL-12 ([3]; CpG treated HMOX1 mice, HO-1 independent): slightly reduced | recovery from anemia (RBC) ([3]; HMOX1^WT mice): almost complete recovery | recovery from thrombocytopenia (platelets) ([3]; HMOX1^WT mice): almost complete recovery | hepatosplenomegaly ([3]; HMOX1^fl/fl mice): partially protected | recovery from anemia (RBC) ([3]; HMOX1^fl/fl mice): partial recovery | recovery from thrombocytopenia (platelets) ([3]; HMOX1^fl/fl mice): partial recovery | lobular inflammatory score (liver) ([3]; both WT and HMOX1^fl/fl mice): reduce | portal inflammatory score (liver) ([3]; both WT and HMOX1^fl/fl mice): reduce | histologic evidence of endothelial activation ([3]; independent of mouse genotype): reduce | cellularity in spleen ([4]; MMF + CpG): reduced cellularity | organomegaly of liver ([4]; MMF + CpG): reduced | organomegaly of spleen ([4]; MMF + CpG): reduced | serum IL-10 ([4]; day 10, MMF 45 mg/Kg twice a day, CpG every other day): significantly higher | erythrocyte count in blood ([4]; day 10, MMF + CpG): corrected | platelet count in blood ([4]; day 10, MMF + CpG): corrected | serum IFNγ [4, 7]: drop | serum IL-12 [4, 7]: drop | HO-1 expression in splenic and peritoneal macrophages ([5]; MMF treatment): increased | HO-1 immunosignal relative to DMSO control [5, 8]: significantly increased | Nrf2 immunosignal relative to DMSO control [5, 8]: significantly increased

C=CC1=C(C)c2cc3[n-]c(cc4nc(cc5[n-]c(cc1n2)c(C)c5C=C)C(C)=C4CCC(=O)O)c(CCC(=O)O)c3C.[Zn+2] [ZnPP, zinc protoporphyrin]
IL-6 in response to CpG ([2]; ZnPP 3 μM, BMDMs): increased levels | TNFα in response to CpG ([2]; ZnPP 3 μM, BMDMs): increased levels | production of IL-10 ([2]; ZnPP 3 μM, BMDMs stimulated with CpG): substantially reduced | IL-10 ([2]; ZnPP, CpG-treated HMOX1^WT BMDM): blocked | residual IL-10 ([2]; ZnPP, CpG-treated HMOX1^fl/fl BMDM): without showing any effect

B1: IFNγ: interferon gamma added back intraperitoneally to IFNγ-/- mice (protein, UniProt P01580 23-155, looked up)
Interferon gamma: HGTVIESLESLNNYFNSSGIDVEEKSLFLDIWRNWQKDGDMKILQSQIISFYLRLFEVLKDNQAISNNISVIESHLITTFFSNSKAKKDAFMSIAKFEVNNPQVQRQAFNELIRVVHQLLPESSLRKRKRSRC
HO-1 induction in spleen [6]: did not induce HO-1
